Test results published in the METLIN SMRT retention time set (Domingo-Almenara et al. 2019).

Assay: gradient 5% acetonitrile 3 min, to 50% in 2 min, to 85% in 15 min, held 3 min, 100 µL/min
Conditions: column: Zorbax Extend-C18 2.1 x 50 mm; eluents: water / acetonitrile, 0.1% formic acid
In short: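 The system's dead and dwell volumes were 40 μL and 900 μL, with a Zorbax Extend-C18 column (2.1 × 50 mm, 1.8 μm) run at 100 μL/min in water and acetonitrile containing 0.1% formic acid each. Pure standards were analyzed in mixtures of ~100 molecules by HPLC–quadrupole time-of-flight mass spectrometry in positive and negative ionization mode. Retention time was assigned from computationally picked, manually inspected adduct peaks.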
In the case of `O=C(Cn1nc2c3ccc(F)cc3ncn2c1=O)Nc1ccccc1Cl`, the RP-LC retention time was 725 s. In the case of `Brc1ccc(OCc2nn3c(C4COc5ccccc5O4)nnc3s2)cc1` (centres undefined), the RP-LC retention time was 1040 s. `O=C(c1ccc(-c2cccnc2)nc1)N1CCN(c2ccccc2Cl)CC1` showed an RP-LC retention time of 764 s. `O=C(NC1CCCCCC1)C1CC(=O)N(CCc2c[nH]c3ccc(F)cc23)C1` (centres undefined) gave an RP-LC retention time of 812 s. `CCc1ccc(C(=O)N2CCN(c3nc(CN4CCCCCC4)cs3)CC2)cc1` showed an RP-LC retention time of 708 s. Work on `COC(=O)c1ccccc1NC1=NS(=O)(=O)c2ccccc21` yielded an RP-LC retention time of 934 s. For `CCCNC(=O)C1CCN(c2ccc(SCC(=O)Nc3ccc4c(c3)CCC4)nn2)CC1`, the RP-LC retention time was 707 s. `COc1ccc(Cl)cc1NC(=O)C1CCN(S(=O)(=O)c2ccc3c(c2)NC(=O)C(C)O3)CC1` (centres undefined) showed an RP-LC retention time of 946 s. For `COc1ccc(Cc2nn3c(CSc4ccccc4)nnc3s2)cc1OC`, the RP-LC retention time was 865 s. `Cn1cc(C(=O)NC2CCCCCC2)c2nn(-c3ccccc3)c(=O)c-2c1` showed an RP-LC retention time of 995 s. With `COc1ccccc1-c1ccc(SCc2cccc(C)c2)nn1` the RP-LC retention time was 1080 s. In the case of `COc1cc2c(Nc3ccc(NC(=O)c4ccccc4)cc3)ncnc2cc1OCCCN1CCOCC1`, the RP-LC retention time was 627 s. In the case of `COc1ccc(-c2nnc(-c3cccnc3N3CCN(C(=O)c4ccc(C#N)cc4)CC3)o2)cc1`, the RP-LC retention time was 874 s. In the case of `Cc1cc(C)n(-c2ccccc2Cl)c(=O)c1C(=O)O`, the RP-LC retention time was 787 s. In the case of `CNC(=O)C1CCCN(c2nc3ncn(CC(=O)Nc4cc(C)ccc4OC)c(=O)c3s2)C1` (centres undefined), the RP-LC retention time was 678 s. With `CC(C)(C)C(=O)Nc1nc2cc3c(cc2s1)OCO3` the RP-LC retention time was 823 s. For `COc1ccccc1CNC(=O)Cn1c(=O)cc(-c2nc(C3CC3)no2)c2ccccc21`, the RP-LC retention time was 932 s. In the case of `CC1(C(=O)NC2CCCC2)CC(c2ccccc2)=NO1` (centres undefined), the RP-LC retention time was 700 s. `CC1CCC2(CC1)NC(=O)N(CC(=O)NCCCc1ccccc1)C2=O` (centres undefined) gave an RP-LC retention time of 832 s. With `CCn1cc(C2=CCN(C(=O)Nc3ccc(SC)cc3)CC2)c2cccnc21` the RP-LC retention time was 910 s. In the case of `O=C(Cc1ccccc1)NCCc1nc2ccccc2[nH]1`, the RP-LC retention time was 545 s. For `O=C(Cc1nc(-c2ccccc2)n[nH]1)Nc1cccc(Cl)c1`, the RP-LC retention time was 800 s. For `COc1ccc(CNC(=O)[C@@]23CCCC[C@H]2N(C)C(=O)CC3)c(OC)c1`, the RP-LC retention time was 663 s. `COc1ccc(NC(=O)N(C)CCc2noc(-c3ccc(Cl)cc3)n2)c(OC)c1` showed an RP-LC retention time of 959 s. In the case of `O=C(NC1CC1)c1ccc(OCC2CCCN(C(=O)c3ccc(F)cc3F)C2)cc1` (centres undefined), the RP-LC retention time was 848 s. `CCOc1ccc(NC(=O)NCCc2nc3cccnc3n2C2CCCC2)cc1` gave an RP-LC retention time of 721 s. `CCCOc1nc2ccccc2nc1N1CCCC(C(=O)N2CCN(c3ccc(OC)cc3)CC2)C1` (centres undefined) gave an RP-LC retention time of 1280 s. For `Cc1cccc(S(=O)(=O)Nc2ccc(C3(C(=O)NCC4CCCO4)CC3)cc2)c1` (centres undefined), the RP-LC retention time was 828 s. With `COCc1nc(CCNS(=O)(=O)Cc2ccccc2)no1` the RP-LC retention time was 722 s. `CC(C)N1C(=O)c2cccnc2Sc2cc(NC(=O)C3CCCCC3)ccc21` gave an RP-LC retention time of 920 s. `O=C(Cc1c(F)cccc1Cl)Nc1nnc(C2CC(=O)N(c3ccccc3)C2)o1` (centres undefined) gave an RP-LC retention time of 691 s. With `O=C(NCc1csc(C2CCCN(C(=O)c3cc(F)ccc3Cl)C2)n1)C1CC1` (centres undefined) the RP-LC retention time was 750 s. Compound `CC1(C)CC(=O)c2cnc(N3CCN(c4ccccn4)CC3)nc2C1` has an RP-LC retention time of 621 s. With `CCOCCCNC(=O)c1ccc(Oc2nccnc2N2CCC(C)CC2)cc1` the RP-LC retention time was 1030 s. Work on `Cc1ccccc1Nc1c(-c2ccccc2)nc2ncccn12` yielded an RP-LC retention time of 759 s. `CN(CCNC(=O)c1cc(=O)n(C)c2c1c(=O)n(C)c(=O)n2C)C1CCCCC1` gave an RP-LC retention time of 624 s. With `CC(C)CNC(=O)N1CCCC(Cc2nncn2C)C1` (centres undefined) the RP-LC retention time was 550 s. For `CC(C)n1c(=O)n(CC(=O)NC2CCCc3ccccc32)c2cc(S(=O)(=O)N3CCCC3)ccc21` (centres undefined), the RP-LC retention time was 927 s. `Cc1c(C(=O)NC2CC2)c(C)n(C)c1-c1ccccc1` gave an RP-LC retention time of 830 s. For `CSc1ccccc1CN1CCC(CNS(=O)(=O)/C=C/c2ccccc2)CC1`, the RP-LC retention time was 607 s. For `COCCNC(=O)c1ccc(CNS(=O)(=O)c2cc(C)ccc2C)cc1`, the RP-LC retention time was 703 s. `CC(=O)c1ccc(NC(=O)c2[nH]c3cc(C)sc3c2CN2CCCC2)cc1` gave an RP-LC retention time of 665 s. For `CN1CCCc2cc(C(CNC(=O)C(=O)NCCC3=CCCCC3)N3CCCC3)ccc21` (centres undefined), the RP-LC retention time was 803 s. Work on `Cn1c(N2CCCN(C(=O)c3ccc(Br)cc3)CC2)cc(=O)n(C)c1=O` yielded an RP-LC retention time of 664 s. Compound `CC1=NS(=O)(=O)N(C)C=C1C(=O)OCc1nc(-c2cccc(C)c2)no1` has an RP-LC retention time of 1020 s. For `Cc1ccc(-n2c(Cc3cccn3C)nnc2SCC(=O)NCC2CCCO2)cc1` (centres undefined), the RP-LC retention time was 744 s. `COC(=O)c1ccc(NC(=O)COc2cc(C)nc(N3CCCC3)n2)cc1` showed an RP-LC retention time of 638 s. Work on `CCS(=O)(=O)N1CCCc2cc(C(=O)Nc3ccccc3Br)ccc21` yielded an RP-LC retention time of 986 s. Work on `Cc1ccc2c(c1)C(O)(CC(=O)c1ccc(NC(=O)C3CCCCC3)cc1)C(=O)N2` (centres undefined) yielded an RP-LC retention time of 766 s. `Cc1oc2c(c1C(=O)NCCc1ccccc1)C1=NC(C)(C)CN1C=N2` showed an RP-LC retention time of 653 s. `CCOc1ccc(NC(=O)Cn2c(N)nc(CC)cc2=O)cc1` gave an RP-LC retention time of 630 s. For `CN1CCN(CCNC(=O)c2ccc3nc(-c4ccc(Cl)cc4)cn3c2)CC1`, the RP-LC retention time was 579 s. For `CCc1cccc(N2C(=O)CN(S(=O)(=O)CC)CC2(C)C(=O)NCc2ccc(F)cc2)c1` (centres undefined), the RP-LC retention time was 945 s. `Cc1cc(C)cc(-n2ccn(Cc3nc(-c4ccc(C(C)(C)C)cc4)no3)c(=O)c2=O)c1` gave an RP-LC retention time of 1130 s. In the case of `Cc1ccc(N(C)C(=O)Cn2ccc3c(=O)n(C)c(=O)n(C)c32)cc1C`, the RP-LC retention time was 693 s. For `Cc1nn(-c2ccc(Cl)cc2)c(C)c1S(=O)(=O)N1CCC(C(=O)NCc2cccs2)CC1`, the RP-LC retention time was 950 s. Compound `CCn1cc(S(=O)(=O)N2[C@H]3CC[C@@H]2c2cnc(-c4ccc(F)cc4)nc2C3)cn1` has an RP-LC retention time of 900 s. `COc1ccc(NC(=O)CSc2cc(N3CCN(c4ccccc4OC)CC3)ncn2)cc1Cl` gave an RP-LC retention time of 981 s. With `Cc1ccc(CNC(=O)c2ccc3c(=O)n(Cc4ccccc4)c(N4CCCC4)nc3c2)o1` the RP-LC retention time was 683 s. With `COc1ccc(-c2nc(-c3cccc(-c4ccnn4C)c3)no2)c(OC)c1` the RP-LC retention time was 1030 s. Work on `CCOC(=O)CCNC(=O)N1CCN(Cc2nc3cc(-c4ccccc4)ccc3o2)CC1` yielded an RP-LC retention time of 675 s. Work on `COCCNC(=O)N1CCN(c2ncccc2-c2nnc(C(C)C)o2)CC1` yielded an RP-LC retention time of 627 s. With `O=C(NC1CC1)C1CCCN(C(=O)c2cc(-c3ccncc3)n[nH]2)C1` (centres undefined) the RP-LC retention time was 538 s. Work on `CCC(=O)N1CCc2ccccc2C1C(=O)NCc1ccccc1Br` (centres undefined) yielded an RP-LC retention time of 884 s. For `CN(C)S(=O)(=O)N1CCOc2ccc(CCC(=O)NCC3CC3)cc2C1`, the RP-LC retention time was 767 s. Compound `CC(=O)N1CCc2nn(CC(=O)Nc3cccc(Br)c3)c(=O)cc2C1` has an RP-LC retention time of 666 s. With `CNc1ncnc2c1cnn2C1CCCCO1` (centres undefined) the RP-LC retention time was 635 s. `CCOc1ccc(NC(=O)CSc2ccc(N3CCCC(C(=O)NC4CC4)C3)nn2)cc1` (centres undefined) gave an RP-LC retention time of 652 s. `COc1cccc(NS(=O)(=O)c2cc(-c3[nH]ncc3C(=O)N(C)C)oc2C)c1` showed an RP-LC retention time of 668 s. For `COc1ccc(NC(=O)Cn2c(N3CCCCC3)nc(C)cc2=O)cc1`, the RP-LC retention time was 661 s. For `Cc1ccc2c(C(=O)Nc3ccc(N4CCOCC4)cc3)cc(NC(=O)C(C)C)cc2n1`, the RP-LC retention time was 618 s. With `O=C(NCCc1ccccc1)N1CCC(c2noc(-c3ccncc3)n2)C1` (centres undefined) the RP-LC retention time was 731 s. `CCC(=O)c1ccc(OCC(O)CN(CC)Cc2ccccc2)cc1` (centres undefined) showed an RP-LC retention time of 566 s. `COc1ccc(S(=O)(=O)N2CCCCC2CC(=O)Nc2ncccn2)cc1` (centres undefined) showed an RP-LC retention time of 647 s. `CN1CCCn2cc(S(=O)(=O)Nc3ccc(Cl)cc3F)cc2C1=O` showed an RP-LC retention time of 727 s. With `CCCN1C(=O)c2[nH]nc(-c3ccc(OC)cc3)c2C1c1cccnc1` (centres undefined) the RP-LC retention time was 656 s. `O=C(c1cn(-c2cc(Nc3ccccc3)ncn2)cn1)N1CCOCC1` showed an RP-LC retention time of 676 s. For `Cc1nn2c(CNS(=O)(=O)Cc3cc(F)cc(F)c3)c(-c3ccccc3)nc2s1`, the RP-LC retention time was 929 s. Compound `CCOc1ccc(N2C(=O)C3N=NN(Cc4nc(-c5ccccc5C)no4)C3C2=O)cc1` (centres undefined) has an RP-LC retention time of 1040 s. `Cc1c(C(=O)N2CCN(S(C)(=O)=O)CC2)nnn1-c1nc2c(s1)CCCC2` gave an RP-LC retention time of 798 s. For `O=C1CCC2(CCN1)CCN(S(=O)(=O)c1ccc(Cl)c(Cl)c1)CC2`, the RP-LC retention time was 839 s. Work on `CCc1ccc(NC(=O)Cn2nc(C(=O)N3CCOCC3)c3ccccc32)cc1` yielded an RP-LC retention time of 822 s. Compound `Cc1ccn2cc(-c3ccc(NS(=O)(=O)c4cccc(F)c4)cc3)nc2n1` has an RP-LC retention time of 651 s. `Cc1noc(-c2cc(=O)n(CC(=O)Nc3ccc(F)c(F)c3)c3ccccc23)n1` showed an RP-LC retention time of 890 s. For `Cc1nc(-c2cccnc2)nc2c1CCC(=O)N2CCN(C)C`, the RP-LC retention time was 503 s. Work on `O=C(CN1C(=O)NC2(CCCCC2)C1=O)Nc1ccc(Cl)cc1` yielded an RP-LC retention time of 825 s. With `CCOc1ccccc1-c1noc(Cn2cnc3c(cnn3-c3ccc(C)c(Cl)c3)c2=O)n1` the RP-LC retention time was 1230 s. For `O=C(C1Cc2ccccc2CN1S(=O)(=O)c1cccs1)N1CCCCCC1` (centres undefined), the RP-LC retention time was 932 s. For `O=c1c(NCCCc2ccccc2)nc2ccncc2n1Cc1ccccc1`, the RP-LC retention time was 778 s.
